One data set concerns the target CDK1/cyclin B (Homo sapiens, UniProt P06493). Description: CDK inhibition assay, CDK1/cyclin B.
Data set [1] concerns human malignant melanoma G 361. The experiment in a line: In vitro cytotoxic activity (Calcein AM, 72 hours), G 361. The conditions noted are these: G-361, 72 h, read-out: Cytotoxicity IC50 G361.
Data set [2] deals with human erythroleukaemia K562. Description: In vitro cytotoxic activity (Calcein AM, 72 hours), K562. The conditions noted are these: K562, 72 h, read-out: Cytotoxicity IC50 K-562.
The next data set deals with CDK9/cyclin T (Homo sapiens, UniProt P50750). Description: CDK inhibition assay, CDK9/cyclin T.
The subject of data set [3] is human T-lymphoblastoid leukaemic cell line CEM. Description: In vitro cytotoxic activity (Calcein AM, 72 hours), CEM. The conditions noted are these: read-out: Cytotoxicity IC50 CEM.
The target of the next data set is CDK2/cyclin E (Homo sapiens, UniProt P24941). Description: CDK inhibition assay, CDK2/cyclin E.
Another data set deals with breast carcinoma MCF7. The experiment in a line: In vitro cytotoxic activity (Calcein AM, 72 hours), MCF7. The conditions noted are these: Homo sapiens, MCF7, 72 h, read-out: Cytotoxicity IC50 MCF7.
Data set [4] deals with p53-responsive reporter pRGCΔfoslacZ in human melanoma cell line Arn8. The experiment in a line: p53-dependent transcriptional activity, β-galactosidase reporter in Arn8 cells. The conditions noted are these: concentration inducing maximum of β-galactosidase activity (p53-responsive reporter).
Data set [5] relates to cervical carcinoma cells HELA. The experiment in a line: In vitro cytotoxic activity (Calcein AM, 72 hours), HELA. The conditions noted are these: Homo sapiens, read-out: Cytotoxicity IC50 HeLa.
In data set [6] the test system is promyelocytic leukemia HL 60. Description: In vitro cytotoxic activity (Calcein AM, 72 hours), HL 60. The conditions noted are these: Homo sapiens, HL-60, 72 h, read-out: Cytotoxicity IC50 HL60.
Data set [7] has as its system human osteogenic sarcoma HOS. The experiment in a line: In vitro cytotoxic activity (Calcein AM, 72 hours), HOS. The conditions noted are these: read-out: Cytotoxicity IC50 HOS.
A short description of data set [8]: In vitro cytotoxic activity (Calcein AM, 72 hours), BJ. The conditions noted are these: human, BJ normal fibroblasts.

Consider 22 compounds from US9023857B2, “Substituted 6-(2-aminobenzylamino)purine derivatives, their use as medicaments and preparations containing these compounds” (Univerzita Palackeho V Olomouci, priority 2009, dated 2015).

CDK9/cyclin T, sequence (P50750 whole entry, species assumed): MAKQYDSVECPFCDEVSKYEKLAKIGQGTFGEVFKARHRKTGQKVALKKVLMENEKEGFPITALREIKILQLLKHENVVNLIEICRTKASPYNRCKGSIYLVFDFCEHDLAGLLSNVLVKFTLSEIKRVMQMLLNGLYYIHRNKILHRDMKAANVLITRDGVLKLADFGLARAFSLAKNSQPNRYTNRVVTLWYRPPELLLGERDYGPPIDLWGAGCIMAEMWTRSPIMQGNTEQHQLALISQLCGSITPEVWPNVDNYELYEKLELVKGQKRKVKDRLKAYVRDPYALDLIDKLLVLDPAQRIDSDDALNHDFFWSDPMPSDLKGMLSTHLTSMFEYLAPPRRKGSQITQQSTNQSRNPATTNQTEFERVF
CDK9/cyclin T, sequence (O60563 whole entry partner, species assumed): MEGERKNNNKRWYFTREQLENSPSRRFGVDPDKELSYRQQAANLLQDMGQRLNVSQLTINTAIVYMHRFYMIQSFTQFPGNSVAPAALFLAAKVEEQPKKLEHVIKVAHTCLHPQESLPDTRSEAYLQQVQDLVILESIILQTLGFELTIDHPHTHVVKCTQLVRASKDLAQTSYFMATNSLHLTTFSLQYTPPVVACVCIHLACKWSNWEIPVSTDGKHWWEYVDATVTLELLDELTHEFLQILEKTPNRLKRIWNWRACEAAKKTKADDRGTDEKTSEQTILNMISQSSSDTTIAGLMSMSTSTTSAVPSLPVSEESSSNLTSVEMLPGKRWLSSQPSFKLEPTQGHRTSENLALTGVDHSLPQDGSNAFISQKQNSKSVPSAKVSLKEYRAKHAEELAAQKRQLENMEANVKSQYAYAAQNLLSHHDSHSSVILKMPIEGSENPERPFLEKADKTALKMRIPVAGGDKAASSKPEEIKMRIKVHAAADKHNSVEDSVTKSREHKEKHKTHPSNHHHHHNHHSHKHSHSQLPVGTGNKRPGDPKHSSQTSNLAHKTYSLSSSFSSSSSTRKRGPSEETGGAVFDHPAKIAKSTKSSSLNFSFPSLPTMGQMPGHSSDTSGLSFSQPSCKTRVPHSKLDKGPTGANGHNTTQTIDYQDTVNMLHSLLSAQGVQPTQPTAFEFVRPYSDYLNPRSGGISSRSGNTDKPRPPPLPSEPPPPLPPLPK
CDK1/cyclin B, sequence (P06493 whole entry, species assumed): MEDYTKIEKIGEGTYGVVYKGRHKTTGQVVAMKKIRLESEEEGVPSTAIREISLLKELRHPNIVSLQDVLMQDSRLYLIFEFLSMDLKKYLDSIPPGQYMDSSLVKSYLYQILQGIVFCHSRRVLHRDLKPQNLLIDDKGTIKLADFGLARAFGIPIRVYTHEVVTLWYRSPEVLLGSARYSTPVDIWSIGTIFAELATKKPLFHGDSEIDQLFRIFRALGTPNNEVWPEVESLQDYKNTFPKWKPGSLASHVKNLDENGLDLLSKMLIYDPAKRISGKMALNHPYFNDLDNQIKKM
CDK1/cyclin B, sequence (P14635 whole entry partner, species assumed): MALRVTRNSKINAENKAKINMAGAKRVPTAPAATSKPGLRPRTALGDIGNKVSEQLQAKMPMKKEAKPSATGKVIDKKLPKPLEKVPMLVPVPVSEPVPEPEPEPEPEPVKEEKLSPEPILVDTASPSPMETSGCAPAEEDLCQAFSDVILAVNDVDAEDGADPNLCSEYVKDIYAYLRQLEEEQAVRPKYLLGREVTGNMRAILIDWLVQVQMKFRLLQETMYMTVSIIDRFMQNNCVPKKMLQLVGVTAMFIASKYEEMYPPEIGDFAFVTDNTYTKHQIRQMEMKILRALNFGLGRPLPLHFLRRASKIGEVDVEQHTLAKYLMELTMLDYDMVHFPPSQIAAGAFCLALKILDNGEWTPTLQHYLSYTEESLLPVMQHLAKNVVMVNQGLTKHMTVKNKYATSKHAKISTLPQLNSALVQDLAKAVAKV

One may read the IC50 as the concentration at which inhibition is half-maximal. For the compound `CC(C)n1cnc2c(NCc3ccccc3)nc(NCC(C)(C)O)nc21` [Compound A2148], the IC50 against CDK1/cyclin B is 0.6 µM; in data set [1], 66 µM; in [2], 47 µM; against CDK9/cyclin T, 0.5 µM; in data set [3] it was 51 µM; on CDK2/cyclin E, 0.4 µM. Moreover, the IC50 in the data set on breast carcinoma MCF7 was 65 µM.

For `CC(C)n1cnc2c(NCc3ccccc3N)nc(NC(C)C(C)(C)O)nc21` (stereo not drawn) [Compound 109], the “Max. β-Gal. Activtity Conc.” value in [4] was 6 µM.

Take `CCCCCCCNc1nc(NCc2ccccc2)c2ncn(C(C)C)c2n1` [Compound A218]: the IC50 against CDK1/cyclin B was 160 µM; in data set [5], 65 µM; in data set [6] it was 91 µM; in [1], 83 µM; in [2], 30.3 µM; against CDK9/cyclin T it was 152 µM. Moreover, the IC50 is 37 µM in data set [3], 165 µM against CDK2/cyclin E, 105 µM in data set [7] and 42.5 µM in the data set on breast carcinoma MCF7. Further, the IC50 at 72 h in [8] was > 167 µM.

On to `Cn1cnc2c(NCc3ccccc3N)nc(NC3CCCCC3N)nc21` (stereo not drawn) [Compound 1], for which the half-inhibitory concentration (IC50) is 1.1 µM at CDK1/cyclin B; 18 µM in [5]; 31 µM in data set [6]; 22 µM in [1]; 46 µM in data set [2]; 0.05 µM against CDK9/cyclin T. In addition, the IC50 in data set [3] was 15 µM; on CDK2/cyclin E, 0.8 µM; in [7], 22 µM; in the data set with breast carcinoma MCF7, 13 µM. For the same compound, the “Max. β-Gal. Activtity Conc.” value in data set [4] is 34 µM. In addition, in data set [8], the IC50 at 72 h is > 167 µM.

On to `Cn1cnc2c(NCc3ccccc3N)nc(NC3CCC(N)CC3)nc21` (stereo not drawn) [Compound 2], for which the IC50 is 0.7 µM against CDK1/cyclin B; 12 µM in [5]; 22 µM in [6]; 14 µM in [1]; 36 µM in data set [2]; 0.01 µM against CDK9/cyclin T. Moreover, the IC50 in data set [3] was 9 µM; against CDK2/cyclin E, 0.4 µM; in data set [7] it was 20 µM; in the data set with breast carcinoma MCF7 it was 10 µM. In data set [4], the “Max. β-Gal. Activtity Conc.” value was determined as 37 µM. Moreover, in data set [8], the IC50 at 72 h is > 167 µM.

For `CCCCCCCNc1nc(NCc2ccccc2N)c2ncn(C(C)C)c2n1` [Compound 106, N-6-(2-aminobenzyl)-N-2-heptyl-9-isopropyl-9H-purin-2,6-diamine], the “Max. β-Gal. Activtity Conc.” value in data set [4] worked out at 41 µM.

Turning to `CC(C)n1cnc2c(NCc3ccccc3N)nc(NCC(C)C(C)(C)O)nc21` (stereo not drawn) [Compound 112], the “Max. β-Gal. Activtity Conc.” value in data set [4] amounted to 35 µM.

Turning to `CCC(CO)Nc1nc(NCc2cc(Cl)ccc2N)c2ncn(C(C)C)c2n1` (stereo not drawn) [Compound 118], the IC50 was 0.08 µM at CDK1/cyclin B; 1.6 µM in data set [5]; 5.4 µM in [6]; 6 µM in data set [1]; 8.4 µM in [2]; 0.002 µM against CDK9/cyclin T. The IC50 is 3.2 µM in data set [3], 0.01 µM on CDK2/cyclin E, 7.6 µM in data set [7] and 1.8 µM with breast carcinoma MCF7. Further, the “Max. β-Gal. Activtity Conc.” value in data set [4] came to 18 µM. Further, the IC50 at 72 h in [8] was > 167 µM.

For `CCC(CO)Nc1nc(NCc2cc(Cl)ccc2N)c2ncn(C3CCCCC3)c2n1` (stereo not drawn) [Compound 209], the 50% inhibitory concentration (IC50) on CDK1/cyclin B is 0.5 µM; in [5] it was 14 µM; in [6] it was 31 µM; in [1], 14 µM; in [2], 25 µM; on CDK9/cyclin T, 0.04 µM. In addition, the IC50 in data set [3] is 12 µM; on CDK2/cyclin E, 0.3 µM; in data set [7] it was 18 µM; in the data set on breast carcinoma MCF7 it was 11 µM. Besides, the “Max. β-Gal. Activtity Conc.” value in data set [4] is 20 µM. Moreover, the IC50 at 72 h in data set [8] was > 167 µM.

Turning to `CCC(CO)Nc1nc(NCc2ccccc2N)c2ncn(Cc3ccccc3)c2n1` (stereo not drawn) [Compound 234], the IC50 against CDK1/cyclin B was 0.7 µM; in data set [5], 18 µM; in data set [6], 33 µM; in [1] it was 18 µM; in data set [2], 25 µM; against CDK9/cyclin T, 0.03 µM. Besides, the 50% inhibitory concentration (IC50) is 16 µM in data set [3], 0.4 µM against CDK2/cyclin E, 17 µM in data set [7] and 11 µM with breast carcinoma MCF7. Moreover, in data set [4], the “Max. β-Gal. Activtity Conc.” value was 24 µM. In [8], the IC50 at 72 h was > 167 µM.

Consider `CCCn1cnc2c(NCc3ccccc3N)nc(NC3CCC(N)CC3)nc21` (stereo not drawn) [Compound 184], for which the IC50 is 0.4 µM against CDK1/cyclin B; 17 µM in data set [5]; 35 µM in data set [6]; 19 µM in data set [1]; 24 µM in data set [2]; 0.0009 µM against CDK9/cyclin T. The IC50 in data set [3] is 11 µM; on CDK2/cyclin E it was 0.2 µM; in data set [7], 32 µM; with breast carcinoma MCF7 it was 8 µM. In addition, in [4], the “Max. β-Gal. Activtity Conc.” value was 6 µM. The IC50 at 72 h in data set [8] is > 167 µM.

With `Nc1ccccc1CNc1nc(NC2CCC(N)CC2)nc2c1ncn2C1CCCCC1` (stereo not drawn) [Compound 195], the IC50 was 0.6 µM against CDK1/cyclin B; 13 µM in [5]; 24 µM in data set [6]; 14 µM in [1]; 38 µM in [2]; 0.05 µM on CDK9/cyclin T. In addition, the IC50 in data set [3] was 11 µM; at CDK2/cyclin E, 0.3 µM; in data set [7], 22 µM; in the data set on breast carcinoma MCF7, 12 µM. Also, in data set [4], the “Max. β-Gal. Activtity Conc.” value was 22 µM. Besides, the IC50 at 72 h in data set [8] is > 167 µM.

With `CC(Nc1nc(NCc2ccccc2N)c2ncn(C)c2n1)C(C)(C)O` (stereo not drawn) [Compound 9], in [4], the “Max. β-Gal. Activtity Conc.” value came to 25 µM.

Consider `CC(C)n1cnc2c(NCc3ccccc3N)nc(NCC(C)(C)O)nc21` [Compound 108], for which the half-maximal inhibitory concentration (IC50) against CDK1/cyclin B is 0.02 µM; in data set [5], 1 µM; in data set [6] it was 2.2 µM; in data set [1], 1.9 µM; in data set [2], 3 µM; against CDK9/cyclin T it was 0.0004 µM. Also, the IC50 was 0.5 µM in data set [3], 0.008 µM on CDK2/cyclin E, 1 µM in data set [7] and 1.2 µM with breast carcinoma MCF7. Moreover, in data set [4], the “Max. β-Gal. Activtity Conc.” value is 3 µM. Further, the IC50 at 72 h in data set [8] was > 167 µM.

`CC(C)C(CO)Nc1nc(NCc2ccccc2N)c2ncn(C(C)C)c2n1` (stereo not drawn) [Compound 107]: the IC50 at CDK1/cyclin B worked out at 0.05 µM; at CDK9/cyclin T, 0.002 µM; on CDK2/cyclin E, 0.04 µM. Moreover, the “Max. β-Gal. Activtity Conc.” value in data set [4] is 11 µM.

Turning to `CC(CC(C)(C)O)Nc1nc(NCc2ccccc2N)c2ncn(C(C)C)c2n1` (stereo not drawn) [Compound 111], in [4], the “Max. β-Gal. Activtity Conc.” value was 32 µM.

Consider `CC(C)n1cnc2c(NCc3cc(F)ccc3N)nc(NC3CCCCC3N)nc21` (stereo not drawn) [Compound 125], for which the IC50 was 0.4 µM against CDK1/cyclin B; 10 µM in data set [2]; 0.008 µM at CDK9/cyclin T; 5 µM in data set [3]; 0.1 µM at CDK2/cyclin E; 6 µM in the data set with breast carcinoma MCF7.

In the case of `CC(C)n1cnc2c(NCc3ccccc3)nc(NC3CCC(N)CC3)nc21` (stereo not drawn) [Compound A2141], the IC50 against CDK1/cyclin B was 0.4 µM; in data set [5], 28 µM; in data set [6] it was 47 µM; in [1] it was 27 µM; in data set [2], 47 µM; at CDK9/cyclin T, 0.7 µM. In addition, the IC50 in [3] is 33 µM; on CDK2/cyclin E, 0.5 µM; in data set [7] it was 28 µM; with breast carcinoma MCF7, 33 µM. The IC50 at 72 h in data set [8] was > 167 µM.

As for `Cn1cnc2c(NCc3ccccc3)nc(NC3CCCCC3N)nc21` (stereo not drawn) [Compound A1140], the IC50 was 2.3 µM against CDK1/cyclin B; 50 µM in [5]; 69 µM in data set [6]; 83 µM in data set [1]; 86 µM in data set [2]; 2.5 µM on CDK9/cyclin T. The IC50 in data set [3] was 31 µM; on CDK2/cyclin E, 2.7 µM; in [7] it was 97 µM; with breast carcinoma MCF7, 52 µM. Also, in data set [8], the IC50 at 72 h is > 167 µM.

For the compound `CC[C@H](CO)Nc1nc(NCc2ccccc2)c2ncn(C(C)C)c2n1` [RO], the IC50 in [5] was 22 µM; in [6] it was 35 µM; in data set [1], 22 µM; in data set [2], 52 µM; in [3], 14 µM; in data set [7] it was 24 µM. In addition, in the data set with breast carcinoma MCF7, the IC50 was 14 µM. Moreover, the “Max. β-Gal. Activtity Conc.” value in [4] came to 50 µM. Also, the 50% inhibitory concentration (IC50) at 72 h in data set [8] was > 167 µM.

Regarding `CCC(Nc1nc(NCc2ccccc2N)c2ncn(C(C)C)c2n1)C(C)(C)O` (stereo not drawn) [Compound 113], the “Max. β-Gal. Activtity Conc.” value in data set [4] was 16 µM.

`CCC(Nc1nc(NCc2ccccc2N)c2ncn(C)c2n1)C(C)(C)O` (stereo not drawn) [Compound 13]: the “Max. β-Gal. Activtity Conc.” value in data set [4] was 36 µM.
